GC-EAD antennal activity data for 1 molecule are collected here from patent US8057829B2, “Methods for repelling insects using sesquiterpene hydrocarbons and their derivatives” (Sterling International Inc., priority 2008, dated 2011).

The subject of assay [1] is antennae of housefly, sand fly, and mosquitoes Aedes aegypti, Anopheles gambiae, Anopheles stephensi. In words: GC-EAD antennal responses to SPME samples of clove essential oil. The note with it: component of clove essential oil SPME sample; response by one or more of the insects; FIG. 1. As for the experimental part: The GC-EAD antennal response of a female housefly (Musca domestica), sand fly (Phlebotomus papatasi), and mosquitoes including the species Aedes aegypti, Anopheles gambiae, and Anopheles stephensi were tested with clove essential oil. FIG. 1 is a simultaneous recording of GC flame ionization detection (FID) and electroantennographic detection (EAD) of the insect antennae to solid phase microextraction (SPME: CAR/PDMS) samples of clove essential oil in a 20 ml glass vial for 20 sec.
(§1) The following procedures were employed to test the EAD response of an insect antenna to a repellent compound. The GC-EAD technique provides an efficient tool for screening behaviorally active repellents. Several synthetic mixtures of potential insect repellent candidates, mostly sesquiterpene hydrocarbons and derivatives, were analyzed in splitless mode using a Varian CP-3800 GC equipped with a polar column (Innowax; 1.0 μm film thickness, 30 m×0.53 mm ID; J & W Scientific), and a 1:1 effluent splitter that allowed simultaneous flame ionization detection (FID) and EAD of the separated volatile compounds. Helium was used as the carrier gas, and the injector temperature was 220° C. The column temperature was 50° C. for 2 min, rising to 240° C. at 10° C./min, then held for 10 min. The outlet for the EAD was held in a humidified air stream flowing at 0.5 liter/min. over an antennal preparation. A glass capillary indifferent electrode filled with Beadle-Ephrussi Ringer, and grounded via a silver wire, was inserted into the severed insect's head with the antennae. A similar recording electrode connected to a high-impedance DC amplifier with automatic baseline drift compensation was placed in contact with the distal end of one antenna (Zhang et al., Chemoecology, 10:69-80 (2000)). The antennal signals were stored and analyzed on a PC equipped with a serial IDAC interface box and the program EAD ver. 2.5 (Syntech, Hilversum, The Netherlands). The compound 1-octen-3-ol (known attractant for many flies and mosquitoes) was included in most of the synthetic mixtures, as a positive control. […]

Assay [2] concerns antennae of housefly, sand fly, and mosquitoes (Aedes aegypti, Aedes increpitus, Anopheles gambiae). The assay can be described thus: GC-EAD antennal responses to SPME samples of patchouli essential oil. The note with it: component of patchouli essential oil SPME sample; response by one or more of the insects; FIG. 2. As for the experimental part:
The following procedures were employed to test the EAD response of an insect antenna to a repellent compound. The GC-EAD technique provides an efficient tool for screening behaviorally active repellents. Several synthetic mixtures of potential insect repellent candidates, mostly sesquiterpene hydrocarbons and derivatives, were analyzed in splitless mode using a Varian CP-3800 GC equipped with a polar column (Innowax; 1.0 μm film thickness, 30 m×0.53 mm ID; J & W Scientific), and a 1:1 effluent splitter that allowed simultaneous flame ionization detection (FID) and EAD of the separated volatile compounds. Helium was used as the carrier gas, and the injector temperature was 220° C. The column temperature was 50° C. for 2 min, rising to 240° C. at 10° C./min, then held for 10 min. The outlet for the EAD was held in a humidified air stream flowing at 0.5 liter/min. over an antennal preparation. A glass capillary indifferent electrode filled with Beadle-Ephrussi Ringer, and grounded via a silver wire, was inserted into the severed insect's head with the antennae. A similar recording electrode connected to a high-impedance DC amplifier with automatic baseline drift compensation was placed in contact with the distal end of one antenna (Zhang et al., Chemoecology, 10:69-80 (2000)). The antennal signals were stored and analyzed on a PC equipped with a serial IDAC interface box and the program EAD ver. 2.5 (Syntech, Hilversum, The Netherlands). The compound 1-octen-3-ol (known attractant for many flies and mosquitoes) was included in most of the synthetic mixtures, as a positive control.

The test system of assay [3] is antennae of Musca domestica, Lucillia sericata, Sarcophaga sp., Muscina stabulans, Culex pipiens, Aedes increpitus. In words: GC-EAD responses of several flies and two mosquitoes to a synthetic mixture. To be noted: about 100 ng of each compound, FIG. 6. As for the experimental part: The GC-EAD responses of several species of flies and two species of mosquito antennae were tested on a synthetic mixture of 1-octen-3-ol, linalool, two representative sesquiterpene hydrocarbons, β-caryophyllene and α-humulene, ZE-nepetalactone, EZ-nepetalactone, and two known insect repellents, DEET, and SS220, with about 100 ng of each compound in the mixture. DEET and SS220 are used as positive controls in the experiment. The compound 1-octen-3-ol is a known attractant for the insects and is also used as a positive control. The insects tested are species of Musca domestica, Lucillia sericata, Sarcophaga sp., Muscina stabulans, Culex pipiens, and Aedes increpitus.
as §1, with “ver.” for “ver. 2.5 (Syntech, Hilversum, The Netherlands). The compound 1-octen-3-ol (known attractant for many flies and mosquitoes) was included in most of the synthetic mixtures, as a positive control.”

Regarding `C=C1CC/C=C(\C)CC[C@@H]2[C@@H]1CC2(C)C` [β-Caryophyllene, β-caryophyllene], the GC-EAD antennal activity entry was “EAD-active” in assay [1], “elicited EAD-activity” in assay [2] and “active on at least one of the insects tested” in assay [3].
